The text below walks through data of paper PMC6934184, “Selective DNA-PKcs inhibition extends the therapeutic index of localized radiotherapy and chemotherapy” (The Journal of Clinical Investigation, 2019).

The target of this assay is T1, PRKCB2 (PKC beta II) (Homo sapiens, UniProt P05771).
T1 construct: purchased Thermo Fisher Scientific (Life Technologies) SelectScreen
The assay is described as follows: SelectScreen Z'LYTE. Type of assay: biochemical. In outline: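 NU5455 was profiled across the SelectScreen Broad panel of kinase activity and binding assays. Z'LYTE reactions such as CSF1R ran at apparent Km ATP, while the Adapta CAMK1 assay used ATP listed as 10. Values are given as percent.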

T1 sequence (P05771 1-673 isoform P05771-2): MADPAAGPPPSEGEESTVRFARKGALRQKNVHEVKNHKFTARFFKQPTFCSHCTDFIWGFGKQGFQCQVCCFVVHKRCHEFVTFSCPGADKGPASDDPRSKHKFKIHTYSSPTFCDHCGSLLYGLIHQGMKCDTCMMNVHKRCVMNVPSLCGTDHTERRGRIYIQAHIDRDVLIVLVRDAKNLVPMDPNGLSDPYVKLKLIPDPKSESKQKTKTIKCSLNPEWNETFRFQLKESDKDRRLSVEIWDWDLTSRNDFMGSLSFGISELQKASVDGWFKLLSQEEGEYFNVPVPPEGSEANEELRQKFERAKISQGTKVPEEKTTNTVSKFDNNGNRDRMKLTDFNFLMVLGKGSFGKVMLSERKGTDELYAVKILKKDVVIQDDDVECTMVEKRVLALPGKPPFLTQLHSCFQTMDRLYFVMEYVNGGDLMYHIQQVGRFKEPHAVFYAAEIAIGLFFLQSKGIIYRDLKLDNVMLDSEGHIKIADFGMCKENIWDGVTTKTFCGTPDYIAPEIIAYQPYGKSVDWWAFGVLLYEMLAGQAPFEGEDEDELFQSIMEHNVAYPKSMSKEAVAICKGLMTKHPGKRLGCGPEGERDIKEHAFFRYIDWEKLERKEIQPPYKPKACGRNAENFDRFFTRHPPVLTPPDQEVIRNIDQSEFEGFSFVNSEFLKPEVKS

On to `CN(C(=O)CN1CCOCC1)c1ccc2sc3c(-c4cccc5c(=O)cc(N6CC7CCC(C6)O7)oc45)cccc3c2c1` [NU5455], for which the inhibition (in general, the relative decrease from the control value, in per cent) at 1 µM was -9.6%.
